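Cells were grown in 96-well plates and exposed to each compound for 48 hours at five concentrations; endpoints were interpolated linearly between bracketing concentrations, or set to the highest concentration if not reached. The concentration for 50% growth inhibition is given as GI50. Definition used: TGI = concentration required for complete inhibition of growth.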
Key:
Experiment in all cases: inhibition of tumour cell growth, NCI panel, 48 h
BT-549 breast = tested on: BT-549 breast
PC-3 prostate = tested on: PC-3 prostate
UO-31 renal = tested on: UO-31 renal
A549 NSCLC = tested on: A549 NSCLC
MDA-MB-231 breast = tested on: MDA-MB-231 breast
RXF 393 renal = tested on: RXF 393 renal
RPMI-8226 leukemia = tested on: RPMI-8226 leukemia
TK-10 renal = tested on: TK-10 renal
SK-MEL-2 melanoma = tested on: SK-MEL-2 melanoma
T-47D breast = tested on: T-47D breast
U251 CNS = tested on: U251 CNS
NCI-H460 lung = tested on: NCI-H460 lung
HCT-15 colon = tested on: HCT-15 colon
OVCAR-3 ovarian = tested on: OVCAR-3 ovarian
IGROV1 ovarian = tested on: IGROV1 ovarian
MOLT-4 leukemia = tested on: MOLT-4 leukemia
NCI/ADR-RES ovarian = tested on: NCI/ADR-RES ovarian
SK-MEL-5 melanoma = tested on: SK-MEL-5 melanoma
SN12C renal = tested on: SN12C renal
SNB-75 CNS = tested on: SNB-75 CNS
SK-MEL-28 melanoma = tested on: SK-MEL-28 melanoma
LOX IMVI melanoma = tested on: LOX IMVI melanoma
SW-620 colon = tested on: SW-620 colon
K-562 leukemia = tested on: K-562 leukemia
SF-539 CNS = tested on: SF-539 CNS
MCF7 breast = tested on: MCF7 breast
MDA-MB-435 = tested on: MDA-MB-435
COLO 205 colon = tested on: COLO 205 colon
OVCAR-4 ovarian = tested on: OVCAR-4 ovarian
KM12 colon = tested on: KM12 colon
HS 578T breast = tested on: HS 578T breast
NCI-H226 lung = tested on: NCI-H226 lung
EKVX NSCLC = tested on: EKVX NSCLC
HOP-92 NSCLC = tested on: HOP-92 NSCLC
CCRF-CEM leukemia = tested on: CCRF-CEM leukemia
OVCAR-5 ovarian = tested on: OVCAR-5 ovarian
HCC-2998 colon = tested on: HCC-2998 colon
SNB-19 CNS = tested on: SNB-19 CNS
NCI-H23 lung = tested on: NCI-H23 lung
SK-OV-3 ovarian = tested on: SK-OV-3 ovarian
DU-145 prostate = tested on: DU-145 prostate
OVCAR-8 ovarian = tested on: OVCAR-8 ovarian
HOP-62 NSCLC = tested on: HOP-62 NSCLC
ACHN renal = tested on: ACHN renal
CAKI-1 renal = tested on: CAKI-1 renal
UACC-257 melanoma = tested on: UACC-257 melanoma
HCT-116 colon = tested on: HCT-116 colon
786-0 renal = tested on: 786-0 renal
HT29 colon = tested on: HT29 colon
SF-295 CNS = tested on: SF-295 CNS
M14 melanoma = tested on: M14 melanoma
SF-268 CNS = tested on: SF-268 CNS
UACC-62 melanoma = tested on: UACC-62 melanoma
NCI-H522 lung = tested on: NCI-H522 lung

With O=C(Cc1csc2nc(-c3ccc(Br)cc3)cn12)N/N=C/c1cc(Br)ccc1O the GI50 (BT-549 breast) was 27.7 µM, the TGI (BT-549 breast) was over 100 µM and the GI50 (PC-3 prostate) was 9.46 µM. It also gave a TGI (PC-3 prostate) of over 100 µM, a GI50 (UO-31 renal) of 24 µM and a TGI (UO-31 renal) of over 100 µM. It also gave a GI50 (A549 NSCLC) of 18.8 µM, a TGI (A549 NSCLC) of over 100 µM and a GI50 (MDA-MB-231 breast) of 11.8 µM. It also gave a TGI (MDA-MB-231 breast) of 66.8 µM, a GI50 (RXF 393 renal) of 63.9 µM and a TGI (RXF 393 renal) of over 100 µM. For the same compound, the GI50 (RPMI-8226 leukemia) was 5.04 µM, the TGI (RPMI-8226 leukemia) was over 100 µM and the GI50 (TK-10 renal) was 4.33 µM. It also gave a TGI (TK-10 renal) of 17 µM, a GI50 (SK-MEL-2 melanoma) of 89 µM and a TGI (SK-MEL-2 melanoma) of over 100 µM. The GI50 (T-47D breast) was 35.3 µM, the TGI (T-47D breast) was over 100 µM and the GI50 (U251 CNS) was 11.3 µM. For the same compound, the TGI (U251 CNS) was over 100 µM, the GI50 (NCI-H460 lung) was over 100 µM and the TGI (NCI-H460 lung) was over 100 µM. It also gave a GI50 (HCT-15 colon) of 5.6 µM, a TGI (HCT-15 colon) of over 100 µM and a GI50 (OVCAR-3 ovarian) of 45.3 µM. For the same compound, the TGI (OVCAR-3 ovarian) was over 100 µM, the GI50 (IGROV1 ovarian) was 1770 nM and the TGI (IGROV1 ovarian) was over 100 µM. It also gave a GI50 (MOLT-4 leukemia) of 674 nM, a TGI (MOLT-4 leukemia) of 8.41 µM and a GI50 (NCI/ADR-RES ovarian) of 2230 nM. The TGI (NCI/ADR-RES ovarian) was 6.75 µM, the GI50 (SK-MEL-5 melanoma) was 11.4 µM and the TGI (SK-MEL-5 melanoma) was 45.4 µM. For the same compound, the GI50 (SN12C renal) was 16.6 µM, the TGI (SN12C renal) was 79.6 µM and the GI50 (SNB-75 CNS) was over 100 µM. It also gave a TGI (SNB-75 CNS) of over 100 µM, a GI50 (SK-MEL-28 melanoma) of 48.8 µM and a TGI (SK-MEL-28 melanoma) of over 100 µM. It also gave a GI50 (LOX IMVI melanoma) of 6.79 µM, a TGI (LOX IMVI melanoma) of 28 µM and a GI50 (SW-620 colon) of 5.51 µM. For the same compound, the TGI (SW-620 colon) was over 100 µM, the GI50 (K-562 leukemia) was 3.02 µM and the TGI (K-562 leukemia) was 13.9 µM. It also gave a GI50 (SF-539 CNS) of 14.9 µM, a TGI (SF-539 CNS) of 53.8 µM and a GI50 (MCF7 breast) of over 100 µM. The TGI (MCF7 breast) was over 100 µM, the GI50 (MDA-MB-435) was 18 µM and the TGI (MDA-MB-435) was over 100 µM. For the same compound, the GI50 (COLO 205 colon) was 23.9 µM, the TGI (COLO 205 colon) was over 100 µM and the GI50 (OVCAR-4 ovarian) was 50.2 µM. The TGI (OVCAR-4 ovarian) was over 100 µM, the GI50 (KM12 colon) was 29.6 µM and the TGI (KM12 colon) was over 100 µM. For the same compound, the GI50 (HS 578T breast) was 53.3 µM, the TGI (HS 578T breast) was over 100 µM and the GI50 (NCI-H226 lung) was 23.3 µM. For the same compound, the TGI (NCI-H226 lung) was 65.1 µM, the GI50 (EKVX NSCLC) was 24.2 µM and the TGI (EKVX NSCLC) was over 100 µM. The GI50 (HOP-92 NSCLC) was 22.2 µM, the TGI (HOP-92 NSCLC) was over 100 µM and the GI50 (CCRF-CEM leukemia) was 3.89 µM. The TGI (CCRF-CEM leukemia) was 38.6 µM, the GI50 (OVCAR-5 ovarian) was 14 µM and the TGI (OVCAR-5 ovarian) was 73.5 µM. For the same compound, the GI50 (HCC-2998 colon) was 5.5 µM, the TGI (HCC-2998 colon) was 19.7 µM and the GI50 (SNB-19 CNS) was 26.1 µM. It also gave a TGI (SNB-19 CNS) of over 100 µM, a GI50 (NCI-H23 lung) of 4.32 µM and a TGI (NCI-H23 lung) of 26.2 µM. The GI50 (SK-OV-3 ovarian) was over 100 µM, the TGI (SK-OV-3 ovarian) was over 100 µM and the GI50 (DU-145 prostate) was 19.5 µM. For the same compound, the TGI (DU-145 prostate) was over 100 µM, the GI50 (OVCAR-8 ovarian) was 7.06 µM and the TGI (OVCAR-8 ovarian) was over 100 µM. The GI50 (HOP-62 NSCLC) was 9.77 µM, the TGI (HOP-62 NSCLC) was 41.3 µM and the GI50 (ACHN renal) was 6.13 µM. The TGI (ACHN renal) was 42.9 µM, the GI50 (CAKI-1 renal) was 4.53 µM and the TGI (CAKI-1 renal) was 34.9 µM. It also gave a GI50 (UACC-257 melanoma) of 20.1 µM, a TGI (UACC-257 melanoma) of 63.2 µM and a GI50 (HCT-116 colon) of 4.31 µM. For the same compound, the TGI (HCT-116 colon) was 48.2 µM, the GI50 (786-0 renal) was 15 µM and the TGI (786-0 renal) was over 100 µM. For the same compound, the GI50 (HT29 colon) was 34.7 µM, the TGI (HT29 colon) was over 100 µM and the GI50 (SF-295 CNS) was 14 µM. For the same compound, the TGI (SF-295 CNS) was 88.3 µM, the GI50 (M14 melanoma) was 14.3 µM and the TGI (M14 melanoma) was 30.4 µM. It also gave a GI50 (SF-268 CNS) of over 100 µM, a TGI (SF-268 CNS) of over 100 µM and a GI50 (UACC-62 melanoma) of 10.4 µM. For the same compound, the TGI (UACC-62 melanoma) was 28.6 µM, the GI50 (NCI-H522 lung) was 11.3 µM and the TGI (NCI-H522 lung) was over 100 µM.
